In patent publication US12453716B2, “Small molecule antagonist to PACAP receptor and uses thereof” (University of Vermont and State Agricultural College, priority 2019, dated 2025):
Each block holds one compound with its values, some of them ahead of it.

Experiments:
PAC1 receptor [1] = biological target: T1, PAC1 receptor (Homo sapiens, UniProt P41586); test: PACAP-stimulated PAC1-EGFP receptor internalization in stable HEK cell line; type: cell-based
T1 construct: expressed in transfected cells
T1 sequence (P41586 21-468): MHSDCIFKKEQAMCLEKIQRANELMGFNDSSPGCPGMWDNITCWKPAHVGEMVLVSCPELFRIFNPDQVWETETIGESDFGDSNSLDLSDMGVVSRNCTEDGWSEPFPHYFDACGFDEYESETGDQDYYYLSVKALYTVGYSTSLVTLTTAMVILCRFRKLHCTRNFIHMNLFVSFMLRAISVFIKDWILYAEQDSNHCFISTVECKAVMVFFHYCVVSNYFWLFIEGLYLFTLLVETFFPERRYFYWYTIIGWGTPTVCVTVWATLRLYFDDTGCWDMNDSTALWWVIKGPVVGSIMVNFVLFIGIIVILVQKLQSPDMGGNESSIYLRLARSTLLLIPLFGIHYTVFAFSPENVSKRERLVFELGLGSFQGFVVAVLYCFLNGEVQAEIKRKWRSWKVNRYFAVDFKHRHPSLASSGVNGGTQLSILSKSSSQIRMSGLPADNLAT
Description: (§1) Compound I-1 blocks PAC1 receptor internalization and calcium signaling. […] Upon 25 nM PACAP application (15 min), the tagged receptor is internalized into intracellular endosomes for ERK signaling (PACAP, middle panel). However, pretreatment of the culture (15 min) with 10-25 μM I-1 blocked PACAP-stimulated receptor internalization (PACAP+I-1); the PAC1-EGFP receptors remained on the cell surface. In FIG. 2, using the same HEK PAC1-EGFP cell line, PACAP rapidly stimulated calcium signaling in Fura-2 assays. The response was blocked approximately 50% with 2.5 μM compound I-1, and was abolished with 25 μM I-1.

PAC1 receptor [2] = biological target: T1, PAC1 receptor; test: PACAP-stimulated calcium signaling, Fura-2 assay in HEK PAC1-EGFP cell line; type: cell-based; conditions: for PAC1 receptor-mediated calcium flux: concentration not given
Description: as §1
The PAC1-EGFP HEK cell lines were preloaded with Fura-2 for calcium imaging. PACAP alone produced robust calcium signals.

PAC1 receptor [3] = biological target: T1, PAC1 receptor; test: PACAP-stimulated ERK phosphorylation/activation in HEK PAC1-EGFP receptor cell line; type: cell-based; conditions: for PAC1 receptor endosomal/ligand-mediated ERK activation: concentration not given
Description: In FIG. 3, using the stably expressing HEK PAC1-EGFP receptor cell line, compound I-1 blocks 25 nM PACAP-stimulated ERK phosphorylation and activation (p42 and p44 ERK bands) in a dose-dependent manner. […] In similar assays, the other compounds (I-2 to I-26) can block PACAP-stimulated ERK signaling with an apparent IC50 of 25 μM.
In FIG. 5, the compound I-20 acts as a glucagon receptor (GCGR) antagonist by binding to an extra-helical allosteric site on the receptor. […] In FIG. 6, the addition of compound I-20 can increase the efficacy and potency of […] inhibiting PACAP-stimulated ERK activation.
In FIG. 7, all samples were pretreated with 25 μM acyl hydrazide before 25 nM PACAP application. Glucagon antagonist is I-20. Data normalized to total cellular ERK not shown.

male rats = test: Open field test after BNST infusion, PACAP-induced anxiety-related behavior; type: in vivo, rat; conditions: FIG. 8
From the text: Compound I-1 blocks PACAP-induced anxiety-related behavior. In FIG. 8, male rats were cannulated bilaterally into the BNST. […] PACAP infusions into the BNST produced stress/anxiety-like responses as reflected by decreased center field times (duration in seconds). […] In the right panel, the open field entry data was not affected by changes in animal locomotion. Asterisk, statistically different from other groups. Note: I-1+PACAP returned open field times to untreated control levels.

- PACAP-stimulated receptor internalization (PAC1 receptor [1]; 15 min pretreatment with 10-25 μM compound, 25 nM PACAP, 15 min, FIG. 1): blocked
- PACAP-stimulated calcium signal blocked (PAC1 receptor [2]; 2.5 μM compound): approximately 50%
- PACAP-stimulated calcium signal/flux (PAC1 receptor [2]; 25 μM compound): abolished
- PACAP-stimulated ERK activation (PAC1 receptor [3]; 25 μM compound, 25 nM PACAP, FIG. 3): near control levels
- IC50 (PAC1 receptor [3]; normalized to total ERK levels, approximate/apparent, FIG. 4, read-out: IC50 in inhibiting PACAP-stimulated ERK activation): 8 to 10 µM
Compound: O=C(N/N=C/c1cccc2c1ccn2Cc1cc(F)cc(F)c1)c1ccc(O)c(Cl)c1 [Compound I-1, (E)-3-chloro-N′-((1-(3,5-difluorobenzyl)-1H-indol-4-yl)methylene)-4-hydroxybenzohydrazide]
- Open field center field time, compound alone compared to control (male rats; 5-10 μM infusion into the BNST, no PACAP): no apparent effects
- PACAP-induced stress/anxiety responses (open field center field time) (male rats; BNST preinjection of compound before PACAP infusion): completely blocked

- PAC1 receptor-mediated calcium flux (PAC1 receptor [2]): completely blocking
- PAC1 receptor endosomal/ligand-mediated ERK activation (PAC1 receptor [3]): without apparent effects
Compound: Cc1cc(C)c(C)c(Cn2ccc3c(/C=N/NC(=O)c4ccc(O)c(Cl)c4)cccc32)c1C [Compound I-19, (E)-3-chloro-4-hydroxy-N′-((1-(2,3,5,6-tetramethylbenzyl)-1H-indol-4-yl)methylene)benzohydrazide]

- ERK activation attenuated (PAC1 receptor [3]; 25 μM compound, FIG. 5): approximately 50%
- Antagonism at the PAC1-receptor compared to I-1 (PAC1 receptor [3]; FIG. 5): weak antagonist
- PACAP-stimulated ERK activation, combination (PAC1 receptor [3]; I-20 together with 10 μM I-1, FIG. 6): basal or near-basal levels
Compound: COc1ccc2cc(-c3cc(-c4cc(Cl)cc(Cl)c4)nn3C(C)c3ccc(C(=O)NCCC(=O)O)cc3)ccc2c1 (stereo not drawn) [Compound I-20]

- PAC1 receptor internalization (PAC1 receptor [1]; concentration not given): modest effects
- PAC1 receptor-mediated calcium flux (PAC1 receptor [2]): attenuate
- PAC1 receptor endosomal/ligand-mediated ERK activation (PAC1 receptor [3]): modest effects
Compound: O=C(N/N=C/c1cccc2c1ccn2Cc1cccc(C(F)(F)F)c1)c1ccc(O)c(Cl)c1 [Compound I-21, reference compound]
